{
  "source": "patent US9345241B2",
  "about": "“Composition having biocide activity for aqueous preparations” (Omya International AG, priority 2008, dated 2016)",
  "key": {"[1]": {"system": "Methylobacterium extorquens", "test": "Biocidal activity of EDDM biocide in calcium carbonate slurries, plate count", "assay_type": "cell-based", "description": "(§1) All quoted bacterial counts (values are in cfu/ml) in the Tables herebelow are determined after 5 days following plate-out and in accordance with counting method described in “Bestimmung von aeroben mesophilen Keimen”, Schweizerisches Lebensmittelbuch, chapter 56, section 7.01, edition of 1985, revised version of 1988.\n(§2) (Ethylenedioxy)dimethanol (EDDM), an aldehyde-releasing biocide, was introduced into 50 g samples of each of calcium carbonate slurry 1 and calcium carbonate slurry 2 in an amount corresponding to 1500 ppm of aldehyde-releasing EDDM biocide based on the weight of the weight of water in the slurry. In parallel, control samples of calcium carbonate slurry 1 and calcium carbonate slurry 2 were prepared in absence of EDDM.\n(§3) Half of the samples of calcium carbonate slurry 1 and calcium carbonate slurry 2 were then inoculated with 1 mL of Methylobacterium extorquens, while the remaining samples where inoculated with 1 mL of Pseudomonas putida. Each of the samples was incubated at 30° C. for 72 hours. Thereafter, a 1:10 dilution in phosphate buffered saline (PBS) was plated on plate count agar (PCA). These plates were incubated at 30° C. and analysed after 5 days."}, "[2]": {"system": "Pseudomonas putida", "test": "Biocidal activity of EDDM biocide in calcium carbonate slurries, plate count", "assay_type": "cell-based", "description": "as §1, §2, §3"}, "[3]": {"settings": "EDDM 1500 ppm in combination with lithium"}, "[4]": {"settings": "EDDM alone at 1500 ppm, no lithium"}},
  "data": [
    {"smiles": "OCOCCOCO", "note": "[EDDM, (Ethylenedioxy)dimethanol]", "values": [
      {"measurement": "bacterial count of the suspension", "setting": "[1]; [3]", "value": "below 10^4 cfu/ml"},
      {"measurement": "resistance of the strain to the biocide implemented alone", "setting": "[1]; [4]", "value": "show resistance"},
      {"measurement": "bacterial count of the suspension", "setting": "[2]; [3]", "value": "below 10^4 cfu/ml"},
      {"measurement": "resistance of the strain to the biocide implemented alone", "setting": "[2]; [4]", "value": "show resistance"}
    ]}
  ]
}
